Source: publication PMC12858405, “Ideal efficacy photoswitching for chromocontrol of TRPC4/5 channel functions in live tissues” (Nature Chemical Biology, 2026)

Target: T1, TRPC5-SYFP2 (Homo sapiens, UniProt Q9UL62)
T1 construct: expressed in transfected cells; host or cells: HEK 293 (ATCC CRL 1573), transiently transfected (jetPRIME)
T1 sequence (Q9UL62 1-973): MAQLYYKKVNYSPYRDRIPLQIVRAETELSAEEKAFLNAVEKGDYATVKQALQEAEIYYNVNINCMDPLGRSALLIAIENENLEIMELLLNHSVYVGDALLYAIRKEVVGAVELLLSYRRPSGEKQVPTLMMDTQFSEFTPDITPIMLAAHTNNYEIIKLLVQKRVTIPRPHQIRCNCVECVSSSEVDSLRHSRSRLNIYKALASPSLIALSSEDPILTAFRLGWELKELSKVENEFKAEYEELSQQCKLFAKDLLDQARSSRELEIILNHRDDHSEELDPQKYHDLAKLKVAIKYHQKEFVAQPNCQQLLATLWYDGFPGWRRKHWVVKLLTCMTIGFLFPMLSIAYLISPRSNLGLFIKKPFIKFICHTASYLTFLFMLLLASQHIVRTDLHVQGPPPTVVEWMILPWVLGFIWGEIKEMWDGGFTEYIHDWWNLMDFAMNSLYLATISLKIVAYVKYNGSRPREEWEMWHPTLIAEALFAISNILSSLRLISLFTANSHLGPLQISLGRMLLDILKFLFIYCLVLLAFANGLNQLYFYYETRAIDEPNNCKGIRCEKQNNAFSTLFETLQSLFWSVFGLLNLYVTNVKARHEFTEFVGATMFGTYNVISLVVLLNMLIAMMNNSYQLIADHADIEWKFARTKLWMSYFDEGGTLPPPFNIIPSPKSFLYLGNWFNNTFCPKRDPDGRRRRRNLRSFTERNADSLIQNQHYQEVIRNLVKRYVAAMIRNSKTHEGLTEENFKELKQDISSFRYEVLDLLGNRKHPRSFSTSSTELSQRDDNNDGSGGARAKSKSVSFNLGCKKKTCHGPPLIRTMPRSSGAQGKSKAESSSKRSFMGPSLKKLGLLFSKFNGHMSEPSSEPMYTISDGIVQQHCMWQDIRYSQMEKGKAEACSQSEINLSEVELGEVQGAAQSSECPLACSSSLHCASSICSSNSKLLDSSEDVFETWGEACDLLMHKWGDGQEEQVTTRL
Experiment: Fura-2 [Ca2+]i recordings, HEK 293 transiently expressing TRPC5-SYFP2
Assay type: cell-based
Settings: 10-1000 nM; compound plate illuminated at 380 nm; EA 100 nM as maximum
Description: Müller, Niemeyer, et al., Schaefer & Thorn-Seshold 2025: Ideal Efficacy Photoswitching of TRPC4/5 in Tissue […]
1.4.4 Differences and selectivity between TRPC5 and TRPC4?
AM237 activates TRPC5 but inhibits EA mediated activation of TRPC4; Pico145 inhibits both TRPC4 and TRPC5. Thus, somewhat naively, it could be argued that it is the para substituent here which affects both the efficacy mode and the selectivity for TRPC4 and/or TRPC5.
Intriguingly, Z-AzPico activates TRPC4 and TRPC5 with low nanomolar potency whereas Z-AzHC only activates TRPC5 but not TRPC4. Therefore, the meta substituent is now responsible for the selectivity in this case. The cryo-EM structures of Pico145 and HC-070 in complex with TRPC5 indicated the same binding site but the southern phenyl ring bearing the OCF3/Cl group is flipped and pointing in opposite directions.
Z isomers, i.e. Z-buried vs. E-projected. Additionally, both E-AzPico and E-AzHC inhibit EA […]
It is not surprising that both ligands bind to either protein because there is a high sequence similarity among the TRPC family in the identified binding pocket for Pico145 /HC-070, and in the binding region, human TRPC4/5 differ only by a single amino acid (TRPC5: V579, TRPC4: I579). We […]
the result of differences in this residue. […]
Intracellular calcium ([Ca2+]i) was measured using the ratiometric Ca2+ dye Fura-2. […]

| SMILES | Effect on [Ca2+]i, TRPC5 |
| --- | --- |
| Cn1c(=O)n(CCCO)c(=O)c2c1nc(Oc1ccc(/N=N\c3ccccc3)c(Cl)c1)n2Cc1ccc(Cl)cc1 [Z*-AzHC] | partial agonists |
| Cn1c(=O)n(CCCO)c(=O)c2c1nc(Oc1ccc(Cl)c(OC(F)(F)F)c1)n2Cc1ccc(Cl)cc1 [AM237, reference compound] | partial agonists |
